Source: the supplement of paper PMC4723716
Where a name gives a salt, the structure may show the parent alone.

Test system: Plasmodium falciparum NF54 gametocytes
Details: 384, incubation time: 72 h
Method: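 Known antimalarials and MMV control compounds in dose response against each stage (I–V) […] The fitted EC50 is reported as IC50 in µM; '>' marks the top dose reached without a curve.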

[1] = gametocyte stage: Stage I Dose Response IC50 (µM), assay protocol: TSSA
[2] = gametocyte stage: Stage II Dose Response IC50 (µM), assay protocol: TSSA
[3] = gametocyte stage: Stage III Dose Response IC50 (µM), assay protocol: TSSA
[4] = gametocyte stage: Stage IV Dose Response IC50 (µM), assay protocol: TSSA
[5] = gametocyte stage: Stage V Dose Response IC50 (µM), assay protocol: TSSA
[6] = gametocyte stage: Stage I Dose Response IC50 (µM), assay protocol: SaLSSA
[7] = gametocyte stage: Stage II Dose Response IC50 (µM), assay protocol: SaLSSA
[8] = gametocyte stage: Stage III Dose Response IC50 (µM), assay protocol: SaLSSA
[9] = gametocyte stage: Stage IV Dose Response IC50 (µM), assay protocol: SaLSSA
[10] = gametocyte stage: Stage V Dose Response IC50 (µM), assay protocol: SaLSSA

Structure (SMILES): C=C[C@H]1CN2CC[C@H]1C[C@@H]2[C@@H](O)c1ccnc2ccc(OC)cc12 [Quinidine] [listing 1 of 2 here]
- IC50 of gametocyte viability [1]: 0.18 µM
- IC50 of gametocyte viability [2]: 0.275 µM
- IC50 of gametocyte viability [3]: 2.83 µM
- IC50 of gametocyte viability [4]: > 12.5 µM
- IC50 of gametocyte viability [5]: > 12.5 µM

Structure (SMILES): C=C[C@H]1CN2CC[C@H]1C[C@@H]2[C@@H](O)c1ccnc2ccc(OC)cc12 [Quinidine] [listing 2 of 2 here]
- IC50 of gametocyte viability [6]: 0.138 µM
- IC50 of gametocyte viability [7]: 0.208 µM
- IC50 of gametocyte viability [8]: > 9.17 µM
- IC50 of gametocyte viability [9]: > 12.5 µM
- IC50 of gametocyte viability [10]: > 11.8 µM

Structure (SMILES): C=C[C@H]1CN2CC[C@H]1C[C@H]2[C@H](O)c1ccnc2ccc(OC)cc12 [Quinine sulfate dihydrate (coeff. 2)]
- IC50 of gametocyte viability [1]: 0.918 µM
- IC50 of gametocyte viability [2]: 0.767 µM
- IC50 of gametocyte viability [3]: 1.58 µM
- IC50 of gametocyte viability [4]: > 12.5 µM
- IC50 of gametocyte viability [5]: > 12.5 µM

Structure (SMILES): C=C[C@H]1CN2CC[C@@H]1C[C@H]2[C@H](O)c1ccnc2ccc(OC)cc12 [Quinine sulfate dihydrate (coeff. 2)]
- IC50 of gametocyte viability [6]: 0.44 µM
- IC50 of gametocyte viability [7]: 0.496 µM
- IC50 of gametocyte viability [8]: > 8.77 µM
- IC50 of gametocyte viability [9]: > 12.5 µM
- IC50 of gametocyte viability [10]: > 8.86 µM

Structure (SMILES): Nc1ccc(S(=O)(=O)Nc2ncccn2)cc1 [Sulfadiazine] [listing 1 of 2 here]
- IC50 of gametocyte viability [1]: > 12.5 µM
- IC50 of gametocyte viability [2]: > 12.5 µM
- IC50 of gametocyte viability [3]: > 12.5 µM
- IC50 of gametocyte viability [4]: > 12.5 µM
- IC50 of gametocyte viability [5]: > 12.5 µM

Structure (SMILES): Nc1ccc(S(=O)(=O)Nc2ncccn2)cc1 [Sulfadiazine] [listing 2 of 2 here]
- IC50 of gametocyte viability [6]: > 12.5 µM
- IC50 of gametocyte viability [7]: > 12.5 µM
- IC50 of gametocyte viability [8]: > 12.5 µM
- IC50 of gametocyte viability [9]: > 12.5 µM
- IC50 of gametocyte viability [10]: > 12.5 µM

Structure (SMILES): COc1ncnc(NS(=O)(=O)c2ccc(N)cc2)c1OC [Sulfadoxine]
- IC50 of gametocyte viability [6]: > 12.5 µM
- IC50 of gametocyte viability [7]: > 12.5 µM
- IC50 of gametocyte viability [8]: > 12.5 µM
- IC50 of gametocyte viability [9]: > 12.5 µM
- IC50 of gametocyte viability [10]: > 12.5 µM

Structure (SMILES): Cc1cc(NS(=O)(=O)c2ccc(N)cc2)no1 [Sulfamethoxazole] [listing 1 of 2 here]
- IC50 of gametocyte viability [1]: > 12.5 µM
- IC50 of gametocyte viability [2]: > 12.5 µM
- IC50 of gametocyte viability [3]: > 12.5 µM
- IC50 of gametocyte viability [4]: > 12.5 µM
- IC50 of gametocyte viability [5]: > 12.5 µM

Structure (SMILES): Cc1cc(NS(=O)(=O)c2ccc(N)cc2)no1 [Sulfamethoxazole] [listing 2 of 2 here]
- IC50 of gametocyte viability [6]: > 12.5 µM
- IC50 of gametocyte viability [7]: > 12.5 µM
- IC50 of gametocyte viability [8]: > 12.5 µM
- IC50 of gametocyte viability [9]: > 12.5 µM
- IC50 of gametocyte viability [10]: > 12.5 µM

Structure (SMILES): COc1cc(C)c2c(Oc3cccc(C(F)(F)F)c3)c(OC)cc(NC(C)CCCN)c2n1 (stereo not given) [Tafenoquine] [listing 1 of 2 here]
- IC50 of gametocyte viability [1]: 5.3 µM
- IC50 of gametocyte viability [2]: 7.55 µM
- IC50 of gametocyte viability [3]: 7.03 µM
- IC50 of gametocyte viability [4]: 6.87 µM
- IC50 of gametocyte viability [5]: 0.919 µM

Structure (SMILES): COc1cc(C)c2c(Oc3cccc(C(F)(F)F)c3)c(OC)cc(NC(C)CCCN)c2n1 (stereo not given) [Tafenoquine] [listing 2 of 2 here]
- IC50 of gametocyte viability [6]: 4.56 µM
- IC50 of gametocyte viability [7]: 3.68 µM
- IC50 of gametocyte viability [8]: 3.74 µM
- IC50 of gametocyte viability [9]: 3.48 µM
- IC50 of gametocyte viability [10]: 2.45 µM

Structure (SMILES): CN(C)[C@@H]1C(O)=C(C(N)=O)C(=O)[C@@]2(O)C(O)=C3C(=O)c4c(O)cccc4[C@@](C)(O)[C@H]3C[C@@H]12 [Tetracycline]
- IC50 of gametocyte viability [6]: > 12.5 µM
- IC50 of gametocyte viability [7]: > 12.5 µM
- IC50 of gametocyte viability [8]: > 12.5 µM
- IC50 of gametocyte viability [9]: > 12.5 µM
- IC50 of gametocyte viability [10]: > 12.5 µM

Structure (SMILES): C=C(NC(=O)C(=C)NC(=O)c1csc(C2=N[C@@H]3c4csc(n4)[C@H]4NC(=O)c5csc(n5)[C@H]([C@](C)(O)[C@@H](C)O)NC(=O)[C@H]5CSC(=N5)/C(=C/C)NC(=O)[C@H]([C@@H](C)O)NC(=O)c5csc(n5)[C@]3(CC2)NC(=O)[C@H](C)NC(=O)C(=C)NC(=O)[C@H](C)NC(=O)[C@H]([C@@H](C)CC)N[C@@H]2C=Cc3c([C@H](C)O)cc(nc3[C@H]2O)C(=O)O[C@@H]4C)n1)C(N)=O [Thiostrepton]
- IC50 of gametocyte viability [1]: 4.04 µM
- IC50 of gametocyte viability [2]: 4.81 µM
- IC50 of gametocyte viability [3]: 3.75 µM
- IC50 of gametocyte viability [4]: 3.41 µM
- IC50 of gametocyte viability [5]: 3.42 µM

Structure (SMILES): COc1cc(Cc2cnc(N)nc2N)cc(OC)c1OC [Trimethoprim]
- IC50 of gametocyte viability [6]: > 12.5 µM
- IC50 of gametocyte viability [7]: > 12.5 µM
- IC50 of gametocyte viability [8]: > 12.5 µM
- IC50 of gametocyte viability [9]: > 12.5 µM
- IC50 of gametocyte viability [10]: > 12.5 µM

Structure (SMILES): CCC[C@@H]1C[C@@H](C(=O)N[C@@H]([C@H]2O[C@H](SC)[C@H](O)[C@@H](O)[C@H]2O)[C@H](C)Cl)N(C)C1 [clindamycin]
- IC50 of gametocyte viability [6]: > 12.5 µM
- IC50 of gametocyte viability [7]: > 12.5 µM
- IC50 of gametocyte viability [8]: > 12.5 µM
- IC50 of gametocyte viability [9]: > 12.5 µM
- IC50 of gametocyte viability [10]: > 12.5 µM

Structure (SMILES): C[C@]12CC[C@H](OS(=O)(=O)O)CC1=CC[C@@H]1[C@@H]2CC[C@]2(C)C(=O)CC[C@@H]12 [dehydroepiandrosterone sulphate]
- IC50 of gametocyte viability [6]: > 12.5 µM
- IC50 of gametocyte viability [7]: > 12.5 µM
- IC50 of gametocyte viability [8]: > 12.5 µM
- IC50 of gametocyte viability [9]: > 12.5 µM
- IC50 of gametocyte viability [10]: > 12.5 µM

Structure (SMILES): O=CN(O)CCCP(=O)([O-])O [fosmidomycin mono sodium]
- IC50 of gametocyte viability [6]: > 12.5 µM
- IC50 of gametocyte viability [7]: > 12.5 µM
- IC50 of gametocyte viability [8]: > 12.5 µM
- IC50 of gametocyte viability [9]: > 12.5 µM
- IC50 of gametocyte viability [10]: > 12.5 µM

Structure (SMILES): CC(C)NC(=N)NC(=N)Nc1ccc(Cl)cc1 [proguanil hydrochloride/1.14]
- IC50 of gametocyte viability [6]: > 12.5 µM
- IC50 of gametocyte viability [7]: > 12.5 µM
- IC50 of gametocyte viability [8]: > 12.5 µM
- IC50 of gametocyte viability [9]: > 12.5 µM
- IC50 of gametocyte viability [10]: > 12.5 µM

Structure (SMILES): CCc1nc(N)nc(N)c1-c1ccc(Cl)cc1 [pyrimethamine]
- IC50 of gametocyte viability [6]: > 12.5 µM
- IC50 of gametocyte viability [7]: > 12.5 µM
- IC50 of gametocyte viability [8]: > 12.5 µM
- IC50 of gametocyte viability [9]: > 12.5 µM
- IC50 of gametocyte viability [10]: > 12.5 µM
